Data published in US20250304587A1, “WEE1 INHIBITOR, PREPARATION THEREFOR AND USE THEREOF” (JIANGSU TASLY DIYI PHARMACEUTICAL CO., LTD., priority 2022, published 2025).

Experiments:
[1] = test system: BxPC3 cells; assay: Cell Titer-Glo anti-proliferation, BxPC3 cells; format: cell-based, human; conditions: 3 days, read-out: Anti-proliferative activity BxPC3 (IC50 class)
Experimental: (§1) A. Evaluation of the Anti-Proliferative Effect of Compounds on BxPC3, HT-29 and OVCAR-3 Cells by the Cell Titer-Glo Method
(§2) Compound solutions of different concentration gradients were prepared. […] The cell growth group without compound was used as a positive control (maximum signal control) and the medium was used as a negative control (minimum signal control), while ensuring that the final level of DMSO in each reaction well was 0.2%. After removing the medium from the 384-well plate, 25 μl of the configured compound at different concentrations was transferred into the well plate and the compound and cells were incubated in the cell incubator at 37° C. with 5% CO2 for 3 days.
(§3) The 384-well plates were removed from the cell incubator and allowed to equilibrate for 1 h to room temperature. 25 μl of Cell Titer-Glo assay was added to each well, lysed on a shaker for 2 min and then read out (Luminescence) using a BMG PHERAStar after 10 min incubation. Calculate the inhibition rate from the luminescence signal.
(§4) to calculate the rate of inhibition of the cells by different concentrations of the compounds. The IC50 of the compound on cell activity inhibition was calculated by fitting a log(inhibitor) vs. response-Variable slope model to GraphPad Prism 6. The fitted equation was: Y=Bottom+(Top-Bottom)/(1+10^((Log IC50−X)*HillSlope)), where Y represents the rate of inhibition and X represents the concentration of the known compound after Log.

[2] = test system: HT-29 cells; assay: Cell Titer-Glo anti-proliferation, HT-29 cells; format: cell-based, human; conditions: 3 days, read-out: Anti-proliferative activity HT-29 (IC50 class)
Experimental: as §1, §2, §3, §4

[3] = test system: OVCAR-3 cells; assay: Cell Titer-Glo anti-proliferation, OVCAR-3 cells; format: cell-based; conditions: 3 days, read-out: Anti-proliferative activity OVCAR-3 (IC50 class)
Experimental: as §1, §2, §3, §4

Row | Compound | IC50 [1] [µM] | IC50 [2] [µM] | IC50 [3] [µM]
1 | C=CCn1c(=O)c2cnc(Nc3ccc(N4CCN(C)CC4)cc3)nc2n1-c1ccc2c(n1)C(O)(C(F)(F)F)C1(CC2)CC1 (centres unmarked) [Compound 53b] | 0.1 to 1 | 0.1 to 1 | 1 to 2
2 | C=CCn1c(=O)c2cnc(Nc3ccc(N4CCC(N(C)C)CC4)cc3)nc2n1-c1ccc2c(n1)[C@](O)(C(F)(F)F)C1(CC2)CC1 (single isomer, unassigned) [Compound 54a] | 2 to 5 | 1 to 2 | 2 to 5
3 | C=CCn1c(=O)c2cnc(Nc3ccc(N4CCC(N(C)C)[C@@H](F)C4)cc3)nc2n1-c1ccc2c(n1)[C@@](C)(O)C1(CC1)C2 (single isomer, unassigned) [Compound 20b] | 1 to 2 | 1 to 2 | 1 to 2
4 | C=CCn1c(=O)c2cnc(Nc3ccc(N4CCC(N(C)C)C(F)C4)cc3)nc2n1-c1ccc2c(n1)C(C)(O)C1(CC2)CC1 (single isomer, unassigned) [Compound 60b] | 0.1 to 1 | 0.1 to 1 | 0.1 to 1
5 | C=CCn1c(=O)c2cnc(Nc3ccc(N4CC5CC(C4)N5C4CCC4)cc3)nc2n1-c1ccc2c(n1)C(O)(CC)C1(CC1)C2 (single isomer, unassigned) [Compound 22a] | 1 to 2 | 0.1 to 1 | 0.1 to 1
6 | C=CCn1c(=O)c2cnc(Nc3ccc(N4CC5CC(C4)N5C)c(C)c3)nc2n1-c1ccc2c(n1)C(O)C1(CC2)CC1 (centres unmarked) [Compound 67] | 1 to 2 | 1 to 2 | 1 to 2
7 | C=CCn1c(=O)c2cnc(Nc3ccc(N4C[C@@H](C)O[C@@H](C)C4)cc3)nc2n1-c1ccc2c(n1)[C@](O)(CC)C1(CC1)C2 (single isomer, unassigned) [Compound 31a] | 5 to 10 | 2 to 5 | 5 to 10
8 | C=CCn1c(=O)c2cnc(Nc3ccc(N4CCC(N(C)C)CC4)c(C)c3)nc2n1-c1ccc2c(n1)[C@@H](O)C1(CC2)CC1 (single isomer, unassigned) [Compound 48a] | 0.1 to 1 | 0.1 to 1 | 0.1 to 1
9 | C=CCn1c(=O)c2cnc(Nc3ccc(N4CCN(C)[C@H](C)C4)cc3)nc2n1-c1ccc2c(n1)C(O)(CC)C1(CC1)C2 (some centres unmarked) [Compound 40] | 1 to 2 | 0.1 to 1 | 0.1 to 1
10 | C=CCn1c(=O)c2cnc(Nc3ccc(N4C[C@H]5CN(C)C[C@H]5C4)cc3)nc2n1-c1ccc2c(n1)[C@@](C)(O)C1(CC2)CC1 (single isomer, unassigned) [Compound 43b] | 0.1 to 1 | 0.1 to 1 | 0.1 to 1
11 | C=CCn1c(=O)c2cnc(Nc3ccc(N4CCC(N(C)C)CC4)cc3)nc2n1-c1ccc2c(n1)C(C)(O)C1(CC1)C2 (racemic) [Compound 12] | 2 to 5 | 0.1 to 1 | 0.1 to 1
12 | C=CCn1c(=O)c2cnc(Nc3ccc(N4CC5CC(C4)N5C)c(OC)c3)nc2n1-c1ccc2c(n1)C(O)C1(CC2)CC1 (racemic) [Compound 49] | 2 to 5 | 2 to 5 | 2 to 5
13 | C=CCn1c(=O)c2cnc(Nc3ccc(N4CC5CC(C4)N5C(C)C)cc3)nc2n1-c1ccc2c(n1)C(O)C1(CC2)CC1 (single isomer, unassigned) [Compound 39a] | 0.1 to 1 | 0.1 to 1 | 0.1 to 1
14 | C=CCn1c(=O)c2cnc(Nc3ccc(N4CCN(C)CC4)c(C)c3)nc2n1-c1ccc2c(n1)C(C)(O)C1(CC2)CC1 (racemic) [Compound 8] | 1 to 2 | 0.1 to 1 | 1 to 2
15 | C=CCn1c(=O)c2cnc(Nc3ccc(N4CC5CC(C4)N5CCF)cc3)nc2n1-c1ccc2c(n1)[C@](C)(O)C1(CC2)CC1 (single isomer, unassigned) [Compound 59a] | 0.1 to 1 | 0.1 to 1 | 0.1 to 1
16 | C=CCn1c(=O)c2cnc(Nc3ccc(N4CCN(C)[C@H](C)C4)cc3)nc2n1-c1ccc2c(n1)[C@@H](O)C1(CC2)CC1 (single isomer, unassigned) [Compound 68a] | 2 to 5 | 1 to 2 | 2 to 5
17 | C=CCn1c(=O)c2cnc(Nc3ccc(N4CC5CN(C)CC5C4)cc3)nc2n1-c1ccc2c(n1)C(O)(C(F)(F)F)C1(CC2)CC1 (single isomer, unassigned) [Compound 58a] | 1 to 2 | 0.1 to 1 | 2 to 5
18 | C=CCn1c(=O)c2cnc(Nc3ccc(N4CC5CC(C4)N5C(C)C)cc3)nc2n1-c1ccc2c(n1)C(O)(CC)C1(CC2)CC1 (single isomer, unassigned) [Compound 36a] | 0.1 to 1 | 0.1 to 1 | 0.1 to 1
19 | C=CCn1c(=O)c2cnc(Nc3ccc(N4CCC5(CC4)CN(C)C5)cc3)nc2n1-c1ccc2c(n1)C(C)(O)C1(CC2)CC1 (racemic) [Compound 47] | > 10 | > 10 | > 10

Row | Compound | IC50 [1] [µM] | IC50 [2] [µM] | IC50 [3] [µM]
20 | C=CCn1c(=O)c2cnc(Nc3ccc(N4CC5CC(C4)N5C)cc3)nc2n1-c1ccc2c(n1)C(C)(O)C1(CC1)C2 (centres unmarked) [Compound 13] | 0.1 to 1 | 0.1 to 1 | 0.1 to 1
21 | C=CCn1c(=O)c2cnc(Nc3ccc(N4CC5CC(C4)N5C(C)C)cc3)nc2n1-c1ccc2c(n1)[C@](O)(CC)C1(CC2)CC1 (single isomer, unassigned) [Compound 36b] | 0.1 to 1 | 0.1 to 1 | 0.1 to 1
22 | C=CCn1c(=O)c2cnc(Nc3ccc(N4CC5CC(C4)N5C)cc3)nc2n1-c1ccc2c(n1)C(O)C1(CC2)CC1 (racemic) [Compound 34] | 1 to 2 | 0.1 to 1 | 1 to 2
23 | C=CCn1c(=O)c2cnc(Nc3ccc(N4CCC(N(C)C)[C@H](F)C4)cc3)nc2n1-c1ccc2c(n1)C(C)(O)C1(CC2)CC1 (some centres unmarked) [Compound 60a] | 0.1 to 1 | 0.1 to 1 | 0.1 to 1
24 | C=CCn1c(=O)c2cnc(Nc3ccc(N4C[C@H]5CN(C)C[C@H]5C4)cc3)nc2n1-c1ccc2c(n1)[C@H](O)C1(CC2)CC1 (single isomer, unassigned) [Compound 63b] | 1 to 2 | 0.1 to 1 | 1 to 2
25 | C=CCn1c(=O)c2cnc(Nc3ccc(N4CC5CC(C4)N5C(C)C)cc3)nc2n1-c1ccc2c(n1)[C@](C)(O)C1(CC2)CC1 (single isomer, unassigned) [Compound 35a] | 0.1 to 1 | 0.1 to 1 | 0.1 to 1
26 | C=CCn1c(=O)c2cnc(Nc3ccc(N4C[C@H]5CN(C)C[C@H]5C4)cc3)nc2n1-c1ccc2c(n1)C(C)(O)C1(CC2)CC1 (mixture of isomers) [Compound 43] | 0.1 to 1 | 0.1 to 1 | 0.1 to 1
27 | C=CCn1c(=O)c2cnc(Nc3ccc(N4CCN(C(C)C)CC4)cc3)nc2n1-c1ccc2c(n1)C(O)C1(CC2)CC1 (single isomer, unassigned) [Compound 57a] | 2 to 5 | 1 to 2 | 2 to 5
28 | C=CCn1c(=O)c2cnc(Nc3ccc(N4C[C@@H]5C[C@H]4CN5C)cc3)nc2n1-c1ccc2c(n1)[C@@](C)(O)C1(CC2)CC1 (single isomer, unassigned) [Compound 45a] | 1 to 2 | 0.1 to 1 | 0.1 to 1
29 | C=CCn1c(=O)c2cnc(Nc3ccc(N4C[C@H]5C[C@@H]4CN5C)cc3)nc2n1-c1ccc2c(n1)C(O)(CC)C1(CC1)C2 (some centres unmarked) [Compound 26] | 2 to 5 | 1 to 2 | 2 to 5
30 | C=CCn1c(=O)c2cnc(Nc3ccc(N4CCN(C)CC4)cc3)nc2n1-c1ccc2c(n1)N(CC)CC21CCC1 [Compound 16] | 1 to 2 | 0.1 to 1 | 
31 | C=CCn1c(=O)c2cnc(Nc3ccc(N4CC5CC(C4)N5CC)cc3)nc2n1-c1ccc2c(n1)[C@](C)(O)C1(CC2)CC1 [Compound 51b] | 0.1 to 1 |  | 
32 | C=CCn1c(=O)c2cnc(Nc3ccc(N4CCC(N(C)C)CC4)cc3)nc2n1-c1ccc2c(n1)C(O)(C(F)(F)F)C1(CC2)CC1 (centres unmarked) [Compound 54b] | 0.1 to 1 | 0.1 to 1 | 0.1 to 1
33 | C=CCn1c(=O)c2cnc(Nc3ccc(N4CCN(C)CC4)c(C)c3)nc2n1-c1ccc2c(n1)C(C)(O)C1(CC1)C2 (racemic) [Compound 10] | 2 to 5 | 1 to 2 | 0.1 to 1
34 | C=CCn1c(=O)c2cnc(Nc3ccc(N4CC5CC(C4)N5C)cc3)nc2n1-c1ccc2c(n1)[C@](C)(O)C1(CC2)CC1 [Compound 7b] | 0.1 to 1 | 0.1 to 1 | 0.1 to 1
35 | C=CCn1c(=O)c2cnc(Nc3ccc(N4CCC(N(C)C)CC4)c(C)c3)nc2n1-c1ccc2c(n1)C(O)C1(CC2)CC1 (single isomer, unassigned) [Compound 41a] | 1 to 2 | 0.1 to 1 | 0.1 to 1
36 | C=CCn1c(=O)c2cnc(Nc3ccc(N4CC5CC(C4)N5C)cc3)nc2n1-c1ccc2c(n1)C(O)C1(CC2)CC1 (single isomer, unassigned) [Compound 34a] |  | 0.1 to 1 | 2 to 5
37 | C=CCn1c(=O)c2cnc(Nc3ccc(N4CCC5(CCN(C)CC5)CC4)cc3)nc2n1-c1ccc2c(n1)[C@](C)(O)C1(CC2)CC1 [Compound 44b] | 0.1 to 1 |  | 
38 | C=CCn1c(=O)c2cnc(Nc3ccc(N4CCN(C)CC4)cc3)nc2n1-c1ccc2c(n1)C(C)(O)C1(CC2)CC1 (single isomer, unassigned) [Compound 6b] | 1 to 2 | 0.1 to 1 | 
